In publication PMC9411606, “Control cell migration by engineering integrin ligand assembly” (Nature Communications, 2022):

Assay: Circular dichroism (CD) spectroscopy of peptide assemblies
Format: physicochemical
Conditions: 100 µM, aqueous, 0.5 mm path
Description: CD spectra of the peptide assemblies in aqueous solutions were recorded under the nitrogen atmosphere using a spectrophotometer JASCO J-820 (Jasco, Japan). A quartz cuvette with 0.5 mm path length was used as a sample container. Continuous scanning mode is applied. And each sample is scanned three times to obtain an averaged spectrum.

FFIKLLI [candidate assembling ligand, FF coupled to N-terminus of IKLLI]
secondary structure of self-assembly: β-sheet structure

FIKLLI [candidate assembling ligand, F coupled to N-terminus of IKLLI]
secondary structure of self-assembly: random coil structure
